Test results as given in article PMC5651055, “Effects of Resveratrol on the Structure and Catalytic Function of Bovine Liver catalase (BLC): Spectroscopic and Theoretical Studies” (Advanced Pharmaceutical Bulletin, 2017).

Target: T1, Bovine liver catalase (BLC) (Bos taurus, UniProt P00432)
T1 construct: gene CAT; native homotetramer from bovine liver (Sigma-Aldrich)
T1 sequence (P00432 2-527): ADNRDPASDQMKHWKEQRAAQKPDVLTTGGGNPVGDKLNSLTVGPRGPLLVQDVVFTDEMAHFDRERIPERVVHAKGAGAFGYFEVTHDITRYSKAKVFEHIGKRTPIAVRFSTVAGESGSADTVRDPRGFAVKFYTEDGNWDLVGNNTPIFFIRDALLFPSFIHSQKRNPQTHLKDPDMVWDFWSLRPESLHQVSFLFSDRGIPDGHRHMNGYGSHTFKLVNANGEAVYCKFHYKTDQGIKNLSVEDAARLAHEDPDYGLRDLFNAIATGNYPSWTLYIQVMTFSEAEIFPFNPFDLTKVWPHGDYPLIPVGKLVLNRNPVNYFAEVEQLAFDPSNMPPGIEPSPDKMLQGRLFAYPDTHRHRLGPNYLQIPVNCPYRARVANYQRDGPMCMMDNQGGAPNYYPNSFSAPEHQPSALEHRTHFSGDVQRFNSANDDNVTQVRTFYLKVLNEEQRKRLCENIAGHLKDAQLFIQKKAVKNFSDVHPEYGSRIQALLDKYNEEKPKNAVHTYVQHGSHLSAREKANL
Assay: H2O2 decomposition at A240 with purified BLC; supported by fluorescence quenching (K =[…] ^-1 at […] °C, n = […])
Assay type: biochemical

Oc1ccc(/C=C/c2cc(O)cc(O)c2)cc1 [tRES, trans resveratrol]
IC50: 8.1 µM
